Here are results for one molecule from US20070009377A1, “Methods for Reducing Pathogens in Biological Samples” (priority 2005, published 2007).

Each structure is given as a SMILES string.

One data set concerns platelets. Briefly: In vivo radiolabeled platelet recovery after infusion into the autologous donor (clinical study one). Also noted: species or system human. The note with it: after 5-day storage. As to the method:
At the end of the 5-day storage period, a small aliquot of the platelets was radiolabeled with ^111Indium, according to the study site's SOP (in agreement with local and international standards for radiolabeling of human platelets). The labeling procedure was performed after formation of ^111In-tropolonate through mixing of ^111Indium chloride (Amersham) with tropolone. If the pH of the platelet samples to be labeled was>6.5, it was brought down to 6.5 to prevent irreversible aggregation of platelets during pelleting.
After washing and resuspension in plasma, a radiolabeled aliquot was infused into the autologous donor. The total radioactivity that was given to a subject in this study was less than 8 MBq. Blood samples for radioactivity counting were collected 15 minutes, 1 hour and 2-3 hours after infusion, twice (AM and PM) on day 1 post-infusion and once on days 2-6 post-infusion. After correcting for 2-hour radioelution as described by Holme, et al., (Holme S, Heaton A, Roodt J. Concurrent label method with 111In and 51Cr allows accurate evaluation of platelet viability of stored platelet concentrates. Br J Haematol 1993;84:717-23.) in vivo radiolabeled platelet recovery and survival values were calculated by the COST computer program using the multiple-hit model. […]

Data set [1] has as its system apheresis platelet concentrates. Briefly: In vitro cell quality tests of stored platelets after riboflavin + UV light treatment (clinical study one). Format: cell-based, human. The protocol: The platelet concentrate with a volume of 250 mL was transferred into a 3-litre polyolefin bag (Sengewald, Rohrdorf, Germany), followed by addition of 27 mL sterile 500 μM riboflavin so that the final concentration in the product was ca. 50 μM. The platelet products were then exposed to UV light (phosphor 265-370 nm) at either a medium dose level (7.2 J/ml) or high dose level (12.4 J/ml). Total illumination time varied from approximately 5-10 minutes with agitation at a temperature of 25-30° C. After treatment, platelet products were transferred into a citrated polyvinyl chloride ELP™ bag (Gambro BCT, Lakewood, Colo.). The treated and control PCs were stored for an additional 5 days at 20-24° C. under standard blood bank conditions. Control platelet products were prepared in the same manner as the treated counterparts except no riboflavin was added and no UV light treatment was performed.
Platelet samples were taken for lab tests at day 0, 3 and 5 of platelet storage using aseptic technique and analysis was completed within 2 hours. The in vitro cell quality tests for platelet count, swirl score, pH, pO2, pCO2, lactate and glucose were performed per standard operating procedures (SOPs) of the trial site. Hypotonic shock response (HSR) and P-selectin expression were measured as described by Ruane et al. (Ruane P H, Edrich R, Gampp D et al. Photochemical inactivation of selected viruses and bacteria in platelet concentrates using riboflavin and light. Transfusion 2004;44:877-85.)
Following Ethical Committee approval and notification of the MCC, the competent authority of South Africa, a total of 18 platelet products were collected with yields ranging from 2.9 to 3.8×10^11 platelets using standard Trima apheresis procedures. Products were treated in a polyolefin container, Sengewald bag, with UV light at either a medium UV dose (7.2 J/ml; N=5) or a high UV dose (12.4 J/ml; N=6) in the presence of 50 μM riboflavin on the day of collection. An additional seven products served as controls which were not treated with UV light. All treated and control PC products were transferred to and stored in ELP™ bags under normal blood bank conditions for 5 days post-apheresis collection. At day 0 (pre-treatment), day 3 and day 5 of storage, the samples from all PC products were measured for pH, pO2, pCO2, lactate and glucose concentrations, P-selectin, HSR and platelet swirl. […] UV treatment also accelerated an increase in P-selectin expression and decreases in HSR and swirl score during platelet storage. It appears that the severity of these changes during platelet storage were in direct proportion to the levels of UV dose applied.

For the molecule `Cc1cc2nc3c(=O)[nH]c(=O)nc-3n(C[C@H](O)[C@H](O)[C@H](O)CO)c2cc1C` [riboflavin, 7,8-dimethyl-10-ribityl isoalloxazine], the “average in vivo recovery of infused platelets” value stood at 14% with platelets (50 μM riboflavin + high dose of UV light (12.4 J/ml)) and 30% with platelets (50 μM riboflavin + medium dose of UV light (7.2 J/ml)). Besides, the pO2 in data set [1] (50 μM riboflavin + high UV dose (12.4 J/ml), Day 0 (pre-treatment)) is 95 +/− 19 mmHg; in data set [1] (50 μM riboflavin + high UV dose (12.4 J/ml), Day 3) it was 83 +/− 22 mmHg; in data set [1] (50 μM riboflavin + high UV dose (12.4 J/ml), Day 5), 88 +/− 30 mmHg; in data set [1] (50 μM riboflavin + medium UV dose (7.2 J/ml), Day 0 (pre-treatment)) it was 60 +/− 15 mmHg; in data set [1] (50 μM riboflavin + medium UV dose (7.2 J/ml), Day 3), 82 +/− 24 mmHg; in data set [1] (50 μM riboflavin + medium UV dose (7.2 J/ml), Day 5), 68 +/− 17 mmHg.
